# Experimental data from patent US20130023531A1, “PYRIMIDO[5,4-D]PYRIMIDYLAMINO PHENYL SULFONAMIDES AS SERINE/THREONINE KINASE INHIBITORS” (BOEHRINGER INGELHEIM INTERNATIONAL GMBH, priority 2011, published 2013).
# Tested on: SK-MEL-28 cells (B-RAF V600E mutated)
# Experiment: Inhibition of the proliferation of cultivated human melanoma cells (SK-MEL-28), AlamarBlue
# Type: cell-based
# Conditions: Homo sapiens, SK-MEL-28, 72 h, SK-MEL-28 melanoma cells, 72 h incubation
# Description: Measurement of the Inhibition of the Proliferation of Cultivated Human Melanoma Cells (SK-MEL-28, B-RAF^V600E mutated)
# For measuring the proliferation of cultivated human tumour cells, cells of the melanoma cell line SK-MEL-28 [from American Type Culture Collection (ATCC)] are cultivated in MEM medium, supplemented with 10% foetal calf serum, 2% sodium bicarbonate, 1 mM sodium pyruvate, 1% non-essential amino acids (e.g. from Cambrex, # BE13-114E) and 2 mM glutamine. SK-MEL-28 cells are placed in 96-well flat bottomed dishes in a density of 2500 cells per well in supplemented MEM medium (see above) and incubated overnight in an incubator (at 37° C. and 5% CO2). The active substances are added to the cells in different concentrations, so that a concentration range of 50 μM to 3.2 nM is covered. If necessary the initial concentration of 50 μM is changed to 10 μM or 2 μM and further dilution is carried out accordingly (up to 0.6 nM or 0.12 nM). After an incubation period of a further 72 h 20 μL AlamarBlue reagent (Serotec Ltd., # BUF012B) are added to each well and the cells are incubated for a further 3-6 h. The colour change of the AlamarBlue reagent is determined in a fluorescence spectrophotometer (e.g. Gemini, Molecular Devices). EC50 values are calculated using a software program (GraphPadPrizm).
row,EC50 [nM],Structure (SMILES)
1,919,CCCS(=O)(=O)Nc1ccc(F)c(Nc2ncnc3cnc(N[C@H]4CCOC4)nc23)c1F [Example I-22]
2,936,CCCS(=O)(=O)Nc1ccc(F)c(Nc2ncnc3cnc(-n4cccn4)nc23)c1F [Example I-31]
3,952,CCCS(=O)(=O)Nc1ccc(F)c(Nc2ncnc3cnc(N4CCC(CN5CCCC5)CC4)nc23)c1F [Example I-12]
4,493,CCCS(=O)(=O)Nc1ccc(F)c(Nc2ncnc3cnc(N4CCC(F)(F)C4)nc23)c1F [Example I-6]
5,1800,CCCS(=O)(=O)Nc1ccc(F)c(Nc2ncnc3cnc(NCCOC)nc23)c1F [Example I-33]
6,514,CCCS(=O)(=O)Nc1ccc(F)c(Nc2ncnc3cnc(N4CCOCC4)nc23)c1F [Example I-2]
7,526,CCCS(=O)(=O)Nc1ccc(F)c(Nc2ncnc3cnc(Nc4ccc(N5CCN(C)CC5)cc4)nc23)c1F [Example I-29]
8,143,CCCS(=O)(=O)Nc1ccc(F)c(Nc2ncnc3cnc(-n4cnc(C)c4C)nc23)c1F [Example I-25]
9,1270,CCCS(=O)(=O)Nc1ccc(F)c(Nc2ncnc3cnc(NC4CC(N5CCN(C)CC5)C4)nc23)c1F (stereo not drawn) [Example I-10]
10,1670,CCCS(=O)(=O)Nc1ccc(F)c(Nc2ncnc3cnc(N4CCC(CN(CC)CC)CC4)nc23)c1F [Example I-14]
11,1630,CCCS(=O)(=O)Nc1ccc(F)c(Nc2ncnc3cnc(N(C)C)nc23)c1F [Example I-23]
12,1030,CCCS(=O)(=O)Nc1ccc(F)c(Nc2ncnc3cnc(N[C@H]4CC[C@H](N5CCOCC5)CC4)nc23)c1F [Example I-16]
13,504,CCCS(=O)(=O)Nc1ccc(F)c(Nc2ncnc3cnc(-n4ccnc4)nc23)c1F [Example I-30]
14,1600,CCCS(=O)(=O)Nc1ccc(F)c(Nc2ncnc3cnc(NC4CCN(CCOC)CC4)nc23)c1F [Example I-17]
15,440,CCCS(=O)(=O)Nc1ccc(F)c(Nc2ncnc3cnc(N4CCC5(CCN(C)CC5)CC4)nc23)c1F [Example I-21]
16,1590,CCCS(=O)(=O)Nc1ccc(F)c(Nc2ncnc3cnc(N4CCC(C(C)N(C)C)CC4)nc23)c1F (stereo not drawn) [Example I-20]

row,EC50 [nM],Structure (SMILES)
1,1500,CCCS(=O)(=O)Nc1ccc(F)c(Nc2ncnc3cnc(-n4cncn4)nc23)c1F [Example I-24]
2,276,CCCS(=O)(=O)Nc1ccc(F)c(Nc2ncnc3cnc(-n4cnc(C)c4)nc23)c1F [Example I-1]
3,1480,CCCS(=O)(=O)Nc1ccc(F)c(Nc2ncnc3cnc(NC4CCN(C)CC4)nc23)c1F [Example I-13]
4,1140,CCCS(=O)(=O)Nc1ccc(F)c(Nc2ncnc3cnc(N4CCN(CCN5CCOCC5)CC4)nc23)c1F [Example I-9]
5,212,CCCS(=O)(=O)Nc1ccc(F)c(Nc2ncnc3cnc(-n4cc(C)nc4C)nc23)c1F [Example I-26]
6,807,CCCS(=O)(=O)Nc1ccc(F)c(Nc2ncnc3cnc(-n4ccc(C)n4)nc23)c1F [Example I-27]
7,1480,CCCS(=O)(=O)Nc1ccc(F)c(Nc2ncnc3cnc(N4CCN(C)CC4)nc23)c1F [Example I-4]
8,781,CCCS(=O)(=O)Nc1ccc(F)c(Nc2ncnc3cnc(N4CCN(CCN(C)C)CC4)nc23)c1F [Example I-15]
9,774,CCCS(=O)(=O)Nc1ccc(F)c(Nc2ncnc3cnc(N4C[C@@H](C)O[C@@H](C)C4)nc23)c1F [Example I-18]
10,1250,CCCS(=O)(=O)Nc1ccc(F)c(Nc2ncnc3cnc(N4CCC(CN(C)C)CC4)nc23)c1F [Example I-19]
11,1190,CCCS(=O)(=O)Nc1ccc(F)c(Nc2ncnc3cnc(N4CCN(CCOC)CC4)nc23)c1F [Example I-3]
12,668,CCCS(=O)(=O)Nc1ccc(F)c(Nc2ncnc3cnc(NC4CCOC4)nc23)c1F (stereo not drawn) [Example I-5]
13,1070,CCCS(=O)(=O)Nc1ccc(F)c(Nc2ncnc3cnc(N4CCN(C5CCN(C)CC5)CC4)nc23)c1F [Example I-11]
14,297,CCCS(=O)(=O)Nc1ccc(F)c(Nc2ncnc3cnc(-n4ccnc4C)nc23)c1F [Example I-32]
15,424,CCCS(=O)(=O)Nc1ccc(F)c(Nc2ncnc3cnc(Nc4ccncc4)nc23)c1F [Example I-28]

# Same assay, conditions: SK-MEL-28 melanoma cells, 72 h incubation
row,EC50 [nM],Structure (SMILES)
1,522,CCCS(=O)(=O)Nc1ccc(F)c(Nc2ncnc3cnc(N4CC[C@H](F)C4)nc23)c1F [Example I-8]
2,176,CCCS(=O)(=O)Nc1ccc(F)c(Nc2ncnc3cnc(N4CC[C@H](F)C4)nc23)c1F [Example I-7]
